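All cell lines were grown in 96-well plates and treated with compound for 48 hours. At the GI50, growth is halved.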 Calls of active or inactive are those of the source. Cut-off read from the data, not from the text of the source: active = GI50 up to about 1.1 µM and inactive = higher.
Assays:
Test in all cases: inhibition of tumour cell growth, NCI panel, 48 h
[1] = system: HL-60
[2] = system: NCI-H23
[3] = system: UO-31
[4] = system: SR
[5] = system: NCI/ADR-RES
[6] = system: RPMI-8226
[7] = system: SF-539
[8] = system: MDA-MB-435
[9] = system: ACHN
[10] = system: RXF 393
[11] = system: NCI-H226
[12] = system: HCT-15
[13] = system: A498
[14] = system: LOX IMVI
[15] = system: IGROV-1
[16] = system: SF-268
[17] = system: MDA-N
[18] = system: K562

SMILES | GI50 [1] | GI50 [2] | GI50 [3] | GI50 [4] | GI50 [5] | GI50 [6] | GI50 [7] | GI50 [8] | GI50 [9] | GI50 [10] | GI50 [11] | GI50 [12] [µM] | GI50 [13] | GI50 [14] | GI50 [15] | GI50 [16] | GI50 [17] | GI50 [18]
O=C(CCc1cc(O)cc(O)c1)NCCc1cc(OCc2ccccc2)cc(OCc2ccccc2)c1 | 2.7 µM (inactive) | 10.4 µM (inactive) | 3.55 µM (inactive) | 4.83 µM (inactive) | 17.8 µM (inactive) | 7.45 µM (inactive) | 16.2 µM (inactive) | 11.1 µM (inactive) | 3.4 µM (inactive) | 8.55 µM (inactive) | 15.9 µM (inactive) | 14.7 | 21.2 µM (inactive) | 11.5 µM (inactive) | 15.5 µM (inactive) | 15 µM (inactive) | 13.7 µM (inactive) | 4.8 µM (inactive)
COc1cc(-c2ccccc2)cn2c1nc1ccccc12 | 15.6 µM (inactive) | 35 µM (inactive) | 14.8 µM (inactive) | 29.2 µM (inactive) | 22.8 µM (inactive) | 20.9 µM (inactive) | 26.6 µM (inactive) | 18.9 µM (inactive) | 20 µM (inactive) | 17.3 µM (inactive) | 17.5 µM (inactive) | 15.3 | – | 22.3 µM (inactive) | 25.2 µM (inactive) | 26.1 µM (inactive) | 17.7 µM (inactive) | 25.2 µM (inactive)
CN(C)c1c(Cl)c(=O)oc2c1ccc1nc(-c3ccccc3)sc12 | > 100 µM (inactive) | > 100 µM (inactive) | > 100 µM (inactive) | > 100 µM (inactive) | > 100 µM (inactive) | > 100 µM (inactive) | > 100 µM (inactive) | > 100 µM (inactive) | > 100 µM (inactive) | 55.3 µM (inactive) | > 100 µM (inactive) | > 100 | > 100 µM (inactive) | > 100 µM (inactive) | > 100 µM (inactive) | > 100 µM (inactive) | > 100 µM (inactive) | > 100 µM (inactive)
CN(C(=O)C1=CCC2(CC1)OCCO2)c1ccccc1I | 96.6 µM (inactive) | > 100 µM (inactive) | > 100 µM (inactive) | > 100 µM (inactive) | > 100 µM (inactive) | > 100 µM (inactive) | – | > 100 µM (inactive) | > 100 µM (inactive) | – | > 100 µM (inactive) | > 100 | > 100 µM (inactive) | > 100 µM (inactive) | > 100 µM (inactive) | – | > 100 µM (inactive) | > 100 µM (inactive)
COc1cc(C2SCC(=O)N2c2cccc(Cl)c2)cc(OC)c1OC (stereo not drawn) | 35.3 µM (inactive) | > 100 µM (inactive) | 58.2 µM (inactive) | 28.4 µM (inactive) | 71.9 µM (inactive) | 45.7 µM (inactive) | > 100 µM (inactive) | 29.5 µM (inactive) | > 100 µM (inactive) | – | > 100 µM (inactive) | 72.3 | > 100 µM (inactive) | 70.1 µM (inactive) | 65.9 µM (inactive) | > 100 µM (inactive) | 17.2 µM (inactive) | 36.1 µM (inactive)
COC(=O)[C@H](COC(C)(C)C)NC(=O)N[C@H](C)c1ccccc1 | > 100 µM (inactive) | > 100 µM (inactive) | > 100 µM (inactive) | > 100 µM (inactive) | > 100 µM (inactive) | > 100 µM (inactive) | > 100 µM (inactive) | > 100 µM (inactive) | > 100 µM (inactive) | – | > 100 µM (inactive) | > 100 | > 100 µM (inactive) | > 100 µM (inactive) | > 100 µM (inactive) | > 100 µM (inactive) | > 100 µM (inactive) | > 100 µM (inactive)
COC(=O)c1cc(S(=O)(=O)NC2=NNC(C)CN2)c(S)cc1Cl (stereo not drawn) | > 100 µM (inactive) | 44.8 µM (inactive) | 99.3 µM (inactive) | 37.5 µM (inactive) | 39.8 µM (inactive) | 31.2 µM (inactive) | 40.5 µM (inactive) | 40.3 µM (inactive) | > 100 µM (inactive) | – | – | 37.8 | 34.5 µM (inactive) | 37.5 µM (inactive) | 29.6 µM (inactive) | 13.5 µM (inactive) | 35.3 µM (inactive) | 47.1 µM (inactive)
Cc1cccc2c1NC(=S)[C@@H]1CCCN1C2=O | – | > 100 µM (inactive) | > 100 µM (inactive) | > 100 µM (inactive) | > 100 µM (inactive) | > 100 µM (inactive) | > 100 µM (inactive) | > 100 µM (inactive) | > 100 µM (inactive) | > 100 µM (inactive) | > 100 µM (inactive) | > 100 | > 100 µM (inactive) | > 100 µM (inactive) | > 100 µM (inactive) | > 100 µM (inactive) | > 100 µM (inactive) | > 100 µM (inactive)
Cc1ccc(S(=O)(=O)NCCCSCCO)cc1 | 26.1 µM (inactive) | 25.6 µM (inactive) | > 100 µM (inactive) | > 100 µM (inactive) | > 100 µM (inactive) | – | – | 45.2 µM (inactive) | > 100 µM (inactive) | > 100 µM (inactive) | 27.9 µM (inactive) | > 100 | > 100 µM (inactive) | 29 µM (inactive) | – | 10 µM (inactive) | 55 µM (inactive) | 38.4 µM (inactive)
CC1(C)C=C(/C=N/Nc2ccccc2)C(C#N)=C(O)C1(C#N)C#N | 41.9 µM (inactive) | > 100 µM (inactive) | > 100 µM (inactive) | 31.3 µM (inactive) | > 100 µM (inactive) | 52.5 µM (inactive) | > 100 µM (inactive) | > 100 µM (inactive) | > 100 µM (inactive) | > 100 µM (inactive) | > 100 µM (inactive) | – | 48.6 µM (inactive) | > 100 µM (inactive) | > 100 µM (inactive) | > 100 µM (inactive) | > 100 µM (inactive) | 56.5 µM (inactive)
Cc1c(C)c(S(=O)(=O)N(CCCN)OCCCN)c(C)c2c1OC(C)(C)CC2 | – | 14.5 µM (inactive) | 17.5 µM (inactive) | 17.5 µM (inactive) | 25.7 µM (inactive) | 17.6 µM (inactive) | – | 15.8 µM (inactive) | 16.1 µM (inactive) | 9.04 µM (inactive) | 13.4 µM (inactive) | 15.8 | 12.9 µM (inactive) | 13.3 µM (inactive) | 7.78 µM (inactive) | 13.3 µM (inactive) | 15.8 µM (inactive) | 15.2 µM (inactive)
O=c1[nH]c(=O)n(C2CC(O)C(CO)O2)cc1Oc1ccccc1 (stereo not drawn) | > 100 µM (inactive) | > 100 µM (inactive) | > 100 µM (inactive) | > 100 µM (inactive) | > 100 µM (inactive) | > 100 µM (inactive) | – | > 100 µM (inactive) | > 100 µM (inactive) | > 100 µM (inactive) | > 100 µM (inactive) | > 100 | – | > 100 µM (inactive) | > 100 µM (inactive) | > 100 µM (inactive) | > 100 µM (inactive) | > 100 µM (inactive)
Cn1c(N)cc(=O)nc1N | > 100 µM (inactive) | > 100 µM (inactive) | > 100 µM (inactive) | > 100 µM (inactive) | > 100 µM (inactive) | > 100 µM (inactive) | > 100 µM (inactive) | > 100 µM (inactive) | > 100 µM (inactive) | – | > 100 µM (inactive) | > 100 | > 100 µM (inactive) | > 100 µM (inactive) | > 100 µM (inactive) | > 100 µM (inactive) | > 100 µM (inactive) | > 100 µM (inactive)
c1csc(-c2ccsc2-c2cccs2)c1 | 30.5 µM (inactive) | 13.3 µM (inactive) | 39.5 µM (inactive) | 1.18 µM (inactive) | 43.3 µM (inactive) | 16.8 µM (inactive) | > 100 µM (inactive) | 24.4 µM (inactive) | > 100 µM (inactive) | 44.9 µM (inactive) | 46.8 µM (inactive) | 31 | 36 µM (inactive) | 98.6 µM (inactive) | > 100 µM (inactive) | > 100 µM (inactive) | 35.8 µM (inactive) | –
Oc1ccc(-c2nc(-c3cccnc3)c(-c3ccc(Cl)cc3)[nH]2)cc1 | 6.95 µM (inactive) | 13 µM (inactive) | 10.8 µM (inactive) | 5.43 µM (inactive) | 14.5 µM (inactive) | 3.47 µM (inactive) | – | 12.3 µM (inactive) | 14.5 µM (inactive) | 13.3 µM (inactive) | 18.8 µM (inactive) | 12.1 | – | 6.89 µM (inactive) | 10.9 µM (inactive) | 14.6 µM (inactive) | 12.6 µM (inactive) | 10.5 µM (inactive)
C[C@@H](Oc1ccc(Oc2cnc3ccc(Cl)cc3n2)cc1)C(=O)O [R(+)XK469] | 37.1 µM (inactive) | > 100 µM (inactive) | > 100 µM (inactive) | > 100 µM (inactive) | > 100 µM (inactive) | – | > 100 µM (inactive) | > 100 µM (inactive) | 87.9 µM (inactive) | > 100 µM (inactive) | – | > 100 | > 100 µM (inactive) | > 100 µM (inactive) | 83 µM (inactive) | > 100 µM (inactive) | > 100 µM (inactive) | –
COc1cc(O)c2c(=O)c(O)c(-c3ccc(O)c(O)c3)oc2c1 [RHAMNETIN] | 2.78 µM (inactive) | – | 6.05 µM (inactive) | 13.3 µM (inactive) | 8.55 µM (inactive) | 6.73 µM (inactive) | – | 13 µM (inactive) | 5.47 µM (inactive) | – | – | 8.04 | 3.68 µM (inactive) | 11.7 µM (inactive) | 40.3 µM (inactive) | 7.26 µM (inactive) | 19.8 µM (inactive) | 9.53 µM (inactive)
